Measured values taken from PubChem BioAssay AID256 (DTP/NCI, 2004).
Several values for one entry are separate records, joined by “and”; a condition that tells them apart may be missing. Equal entries are not always repeated. Inconclusive results and toxic doses are left out. The calls were made as follows: active = survival T/C of 150% or more; inactive = T/C below 125% in these data.

Tested on: CD2F1 mice, L1210 leukemia ip, survival T/C
Assay: NCI In Vivo Anticancer Drug Screen. Data for tumor model L1210 Leukemia (intraperitoneal) in CD2F1 (CDF1) mice
Conditions: higher = longer survival
Summary of the method: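 Ratio T/C, where T is the treated-group value and C the vehicle-dosed control value, from mice implanted with a transplantable tumor.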

[1] = endpoint: mean survival time, dose: 100.0 mg/kg/injection, schedule: Q01DX009 (ip), vehicle: saline with Tween-80
[2] = endpoint: mean survival time, dose: 200.0 mg/kg/injection, schedule: Q01DX009 (ip), vehicle: saline with Tween-80
[3] = endpoint: mean survival time, dose: 400.0 mg/kg/injection, schedule: Q01DX009 (ip), vehicle: saline with Tween-80
[4] = endpoint: mean survival time, dose: 12.5 mg/kg/injection, schedule: Q01DX005 (ip), vehicle: water
[5] = endpoint: mean survival time, dose: 25.0 mg/kg/injection, schedule: Q01DX005 (ip), vehicle: water
[6] = endpoint: mean survival time, dose: 50.0 mg/kg/injection, schedule: Q01DX005 (ip), vehicle: water
[7] = endpoint: mean survival time, dose: 100.0 mg/kg/injection, schedule: Q04DX003 (ip), vehicle: saline with Tween-80
[8] = endpoint: mean survival time, dose: 200.0 mg/kg/injection, schedule: Q04DX003 (ip), vehicle: saline with Tween-80
[9] = endpoint: mean survival time, dose: 400.0 mg/kg/injection, schedule: Q04DX003 (ip), vehicle: saline with Tween-80
[10] = endpoint: mean survival time, dose: 100.0 mg/kg/injection, schedule: Q04DX003 (ip), vehicle: Klucel (hydroxypropylcellulose) (HPC)
[11] = endpoint: mean survival time, dose: 50.0 mg/kg/injection, schedule: Q04DX002 (ip), vehicle: saline with Tween-80
[12] = endpoint: mean survival time, dose: 100.0 mg/kg/injection, schedule: Q04DX002 (ip), vehicle: saline with Tween-80
[13] = endpoint: mean survival time, dose: 200.0 mg/kg/injection, schedule: Q04DX002 (ip), vehicle: saline with Tween-80

Measured: T/C

CN(C)CCC(O)C(O)CCN(C)C (configuration not stated)
inactive: endpoint: mean survival time, dose: 75.0 mg/kg/injection, schedule: Q01DX001 (ip), vehicle: other 102 % of control | endpoint: mean survival time, dose: 150.0 mg/kg/injection, schedule: Q01DX001 (ip), vehicle: other 102 % of control | endpoint: mean survival time, dose: 300.0 mg/kg/injection, schedule: Q01DX001 (ip), vehicle: other 103 % of control

COc1c(C)ccc([N+](=O)[O-])c1OC
inactive: [1] 97 % of control | [2] 98 % of control | [3] 98 % of control

O=NN(CCCl)C(=O)Oc1cc(Cl)c(Cl)cc1Cl
active: endpoint: median survival time, dose: 50.0 mg/kg/injection, schedule: Q01DX009 (ip), vehicle: Klucel (hydroxypropylcellulose) (HPC) 195 % of control
inactive: endpoint: median survival time, dose: 6.0 mg/kg/injection, schedule: Q01DX009 (ip), vehicle: Klucel (hydroxypropylcellulose) (HPC) 106 % of control | endpoint: median survival time, dose: 12.0 mg/kg/injection, schedule: Q01DX009 (ip), vehicle: Klucel (hydroxypropylcellulose) (HPC) 124 % of control | endpoint: median survival time, dose: 12.5 mg/kg/injection, schedule: Q01DX009 (ip), vehicle: Klucel (hydroxypropylcellulose) (HPC) 109 % of control

CSc1ncnc2cn(C3OC(CO)C(O)C3O)nc12 (configuration not stated)
inactive: endpoint: mean survival time, dose: 6.25 mg/kg/injection, schedule: Q01DX005 (ip), vehicle: water 96 % of control | [4] 100 % of control | [5] 114 % of control | [6] 92 % of control | endpoint: mean survival time, dose: 100.0 mg/kg/injection, schedule: Q01DX005 (ip), vehicle: water 100 % of control | endpoint: mean survival time, dose: 200.0 mg/kg/injection, schedule: Q01DX005 (ip), vehicle: water 86 % of control

COc1cc(C(=O)N(C(C)C)C2CCCCC2)cc(OC)c1OC
inactive: [7] 104 % of control | [8] 96 % of control

O/N=C1/CCCC/C1=C/c1ccccc1Cl
inactive: [1] 95 % of control | [2] 97 % of control | [3] 100 % of control

Nc1ccc(N)c(N)c1
inactive: endpoint: mean survival time, dose: 100.0 mg/kg/injection, schedule: Q04DX002 (ip), vehicle: saline 97 % of control | endpoint: mean survival time, dose: 200.0 mg/kg/injection, schedule: Q04DX002 (ip), vehicle: saline 90 % of control | endpoint: mean survival time, dose: 400.0 mg/kg/injection, schedule: Q04DX002 (ip), vehicle: saline 97 % of control

CC(C)(C)N1CC(C(O)(c2ccccc2)c2ccccc2)C1
inactive: endpoint: mean survival time, dose: 25.0 mg/kg/injection, schedule: Q01DX001 (ip), vehicle: saline with Tween-80 101 % of control | endpoint: mean survival time, dose: 50.0 mg/kg/injection, schedule: Q01DX001 (ip), vehicle: saline with Tween-80 101 % of control

CN(C)/C=N/c1c(CO)c(-c2ccccc2)nn1-c1ccccc1
inactive: [7] 101 % of control | [8] 95 % of control | [9] 95 % of control

CCOC(=O)CNC(=O)c1ccc(N(CCCl)CCCl)cc1
inactive: [10] 95 % of control | endpoint: mean survival time, dose: 200.0 mg/kg/injection, schedule: Q04DX003 (ip), vehicle: Klucel (hydroxypropylcellulose) (HPC) 96 % of control | endpoint: mean survival time, dose: 400.0 mg/kg/injection, schedule: Q04DX003 (ip), vehicle: Klucel (hydroxypropylcellulose) (HPC) 104 % of control

CC(=NC(c1ccccc1)c1ccccc1)N(C)C
inactive: endpoint: mean survival time, dose: 25.0 mg/kg/injection, schedule: Q04DX002 (ip), vehicle: saline with Tween-80 102 % of control | [11] 98 % of control | [12] 102 % of control

O=C(/C=C/c1ccccc1)NC(=S)NCc1ccccc1
inactive: endpoint: mean survival time, dose: 100.0 mg/kg/injection, schedule: Q01DX001 (ip), vehicle: saline with Tween-80 91 % of control | [1] 97 % of control and 100 % of control | [12] 89 % of control and 94 % of control and 98 % of control | endpoint: mean survival time, dose: 200.0 mg/kg/injection, schedule: Q01DX001 (ip), vehicle: saline with Tween-80 88 % of control | [2] 94 % of control and 104 % of control | endpoint: mean survival time, dose: 400.0 mg/kg/injection, schedule: Q01DX001 (ip), vehicle: saline with Tween-80 91 % of control | [3] 101 % of control and 105 % of control

OC(c1ccccc1)(c1ccccc1)C(Cc1ccccc1)Cc1ccccc1
inactive: [7] 102 % of control | [8] 100 % of control | [9] 94 % of control

CCCCCCCCOc1ccc(Cl)cc1
inactive: [12] 90 % of control | [13] 90 % of control | endpoint: mean survival time, dose: 400.0 mg/kg/injection, schedule: Q04DX002 (ip), vehicle: saline with Tween-80 93 % of control

Nc1nc2c(ncn2-c2cccc(C(F)(F)F)c2)c(=O)[nH]1
inactive: [7] 94 % of control | [8] 89 % of control | [9] 92 % of control

Cc1cc(C)c(N)c(Br)c1C
inactive: [1] 102 % of control | [7] 103 % of control | [2] 97 % of control | [8] 100 % of control | [3] 104 % of control | [9] 101 % of control

CCCCCCN=C(N)NC(=O)OC
inactive: endpoint: mean survival time, dose: 6.25 mg/kg/injection, schedule: Q01DX009 (ip), vehicle: saline with Tween-80 87 % of control | endpoint: mean survival time, dose: 12.5 mg/kg/injection, schedule: Q01DX009 (ip), vehicle: saline with Tween-80 100 % of control | endpoint: mean survival time, dose: 25.0 mg/kg/injection, schedule: Q01DX009 (ip), vehicle: saline with Tween-80 100 % of control

Nc1cccc(/C=C/c2cccc([N+](=O)[O-])c2)c1
inactive: endpoint: mean survival time, dose: 100.0 mg/kg/injection, schedule: Q04DX002 (ip), vehicle: Klucel (hydroxypropylcellulose) (HPC) 98 % of control | endpoint: mean survival time, dose: 200.0 mg/kg/injection, schedule: Q04DX002 (ip), vehicle: Klucel (hydroxypropylcellulose) (HPC) 103 % of control | endpoint: mean survival time, dose: 400.0 mg/kg/injection, schedule: Q04DX002 (ip), vehicle: Klucel (hydroxypropylcellulose) (HPC) 103 % of control

COC1CC(N)C(O)C(C)O1 (configuration not stated)
inactive: endpoint: mean survival time, dose: 12.5 mg/kg/injection, schedule: Q01DX009 (ip), vehicle: water 103 % of control | endpoint: mean survival time, dose: 25.0 mg/kg/injection, schedule: Q01DX009 (ip), vehicle: water 101 % of control | endpoint: mean survival time, dose: 50.0 mg/kg/injection, schedule: Q01DX009 (ip), vehicle: water 107 % of control | endpoint: mean survival time, dose: 100.0 mg/kg/injection, schedule: Q01DX009 (ip), vehicle: water 105 % of control | endpoint: mean survival time, dose: 200.0 mg/kg/injection, schedule: Q01DX009 (ip), vehicle: water 92 % of control

CC1=C(C)C2(C)C1(C)C1(C)C(C)=C(C)C21C (configuration not stated)
inactive: [7] 96 % of control | [8] 93 % of control | [9] 89 % of control

CC(=O)Nc1c(C#N)c(C#N)nn1C
inactive: [11] 98 % of control | [12] 106 % of control | [13] 102 % of control

O=S1(=O)CCC1
inactive: endpoint: mean survival time, dose: 75.0 mg/kg/injection, schedule: Q01DX001 (ip), vehicle: saline 114 % of control | endpoint: mean survival time, dose: 150.0 mg/kg/injection, schedule: Q01DX001 (ip), vehicle: saline 97 % of control | endpoint: mean survival time, dose: 300.0 mg/kg/injection, schedule: Q01DX001 (ip), vehicle: saline 105 % of control

CNc1ncnc2c1cnn2C1OC(CO)C(O)C1O (configuration not stated)
inactive: [4] 93 % of control | [5] 102 % of control | [6] 104 % of control

O=C1CC2CCC1C2 (configuration not stated)
inactive: endpoint: mean survival time, dose: 25.0 mg/kg/injection, schedule: Q04DX003 (ip), vehicle: Klucel (hydroxypropylcellulose) (HPC) 97 % of control | endpoint: mean survival time, dose: 50.0 mg/kg/injection, schedule: Q04DX003 (ip), vehicle: Klucel (hydroxypropylcellulose) (HPC) 98 % of control | [10] 97 % of control

Clc1cccc(Cl)c1C(Nc1nncs1)Nc1nncs1
active: endpoint: median survival time, dose: 144.0 mg/kg/injection, schedule: Q01DX005 (ip), vehicle: saline with Tween-80 151 % of control | endpoint: median survival time, dose: 240.0 mg/kg/injection, schedule: Q01DX005 (ip), vehicle: saline with Tween-80 171 % of control | endpoint: median survival time, dose: 400.0 mg/kg/injection, schedule: Q01DX005 (ip), vehicle: saline with Tween-80 192 % of control and 223 % of control
inactive: endpoint: median survival time, dose: 25.0 mg/kg/injection, schedule: Q01DX005 (ip), vehicle: saline with Tween-80 113 % of control

CCCCCCCCCCSC(=N)N
inactive: endpoint: mean survival time, dose: 6.25 mg/kg/injection, schedule: Q01DX001 (ip), vehicle: Klucel (hydroxypropylcellulose) (HPC) 102 % of control | endpoint: mean survival time, dose: 12.5 mg/kg/injection, schedule: Q01DX001 (ip), vehicle: Klucel (hydroxypropylcellulose) (HPC) 112 % of control | endpoint: mean survival time, dose: 25.0 mg/kg/injection, schedule: Q01DX001 (ip), vehicle: Klucel (hydroxypropylcellulose) (HPC) 96 % of control

COC(=O)c1ccccc1Nc1c2ccc(Cl)cc2nc2c1c(C)nn2C
inactive: [1] 96 % of control | [7] 101 % of control | [2] 100 % of control | [8] 95 % of control | [3] 97 % of control | [9] 106 % of control

CC1CC(C)(C)NC(CC2CCCCC2O)O1 (configuration not stated)
inactive: [7] 94 % of control
